# Assay results reported in patent publication US20210128639A1, “CELL PREPARATION FOR TREATING BRAIN TUMOR” (priority 2017, published 2021).
# Experiments:
# Format in all cases: cell-based, human
# NS/PCs expressing HSVtk = experiment: Cell death of NS/PCs expressing HSVtk on adding ganciclovir to the medium; details: 1 μg/ml ganciclovir (GCV) added to the medium
# Text: Secondary or tertiary NS/PCs differentiation-induced from human iPS cells were collected with the centrifuge and disassembled into single cells using TrypLE Select. The single cells were suspended in NS medium, inoculated into a low adhesive flask at a concentration of 1×10^5 cells/ml, infected with the CSIV-EF-HSV1tk-IRES2-hKO1 lentiviral vector at an MOI (multiplicity of infection) of 0.5 to 1, and cultured for 7 days with the medium replaced every 3 to 4 days. The obtained NS/PCs were infected with the CSIV-EF-HSV1tk-IRES2-hKO1 lentiviral vector at an MOI of 0.5 to 1 in the same way again to prepare therapeutic stem cells (TSCs), that is, NS/PCs expressing HSVtk.
# [1] = test system: Tet-induction NS/PCs expressing HSVtk; experiment: Cell death of Tet-induction NS/PCs expressing HSVtk on adding Dox and GCV to the medium; details: 1 μg/ml doxycycline (Dox) and 1 μg/ml GCV added to the medium
# Text: Tet-induced iPS cells expressing HSVtk were differentiation-induced into NS/PCs to obtain secondary and tertiary Tet-induced NS/PCs expressing HSVtk.
# [2] = test system: Tet-induction iPS cells expressing HSVtk; experiment: Cell death of Tet-induction iPS cells expressing HSVtk on adding Dox and GCV to the medium; details: 1 μg/ml doxycycline (Dox) and 1 μg/ml GCV added to the medium
# Text: Human iPS cells were infected with the CSIV-HSV1tk-TRE-EF-KT lentiviral vector at an MOI of 2.5 to 10 and cultured. The clones were then sorted with the cell sorter to obtain an iPS cell line expressing hKO1 steadily and highly.
compound,measurement,setting,value
"Nc1nc(O)c2ncn(COC(CO)CO)c2n1 [GCV, ganciclovir]",cell death of NS/PCs expressing HSVtk,NS/PCs expressing HSVtk,cell death of the NS/PCs expressing HSVtk was induced
same,cell death of Tet-induction NS/PCs expressing HSVtk,[1],cell death of these Tet-induction NS/PCs expressing HSVtk was also induced
same,cell death of Tet-induction iPS cells expressing HSVtk,[2],cell death of Tet-induction iPS cells expressing HSVtk was induced
